Test results reported in the NIST ThermoML archive (doi:10.1016/j.tca.2016.04.001).

Assay: xn = mol fraction of the nth substance listed
Conditions: 87 kPa, Liquid, Vibrating tube method

CC(=O)OC(C)(C)C [1,1-dimethylethyl ethanoate] + OC(CCl)CCl
x2 = 0
Conditions	mass density [kg/m3]
293.15 K	866.95
298.15 K	861.41
303.15 K	855.79
308.15 K	850.17
313.15 K	844.49

CC(=O)OC(C)(C)C [1,1-dimethylethyl ethanoate] + OCc1ccccc1
mass density [kg/m3]
Conditions	293.15 K	298.15 K	303.15 K	308.15 K	313.15 K
x2 = 0	866.95	861.41	855.79	850.17	844.49
x2 = 0.047	874.64	869.18	863.68	858.15	852.61
x2 = 0.0925	882.2	876.83	871.43	865.99	860.52
x2 = 0.2017	900.32	895.16	889.77	884.75	879.5
x2 = 0.3001	916.98	912	906.99	901.96	896.9
x2 = 0.4	934.1	929.3	924.47	919.62	914.74
x2 = 0.4999	951.7	947.08	942.4	937.73	933.04
x2 = 0.6002	969.63	965.17	960.68	956.18	951.66
x2 = 0.7027	988.3	984.07	979.75	975.42	971.06
x2 = 0.7996	1006.55	1002.4	998.24	994.06	989.87
x2 = 0.9059	1026.81	1022.83	1018.83	1014.82	1010.79
x2 = 0.9528	1035.96	1032.06	1028.11	1024.17	1020.21

OC(CCl)CCl [1,3-dichloro-2-propanol] + C=COC(C)=O
mass density [kg/m3]
Conditions	293.15 K	298.15 K	303.15 K	308.15 K	313.15 K
x1 = 0.0481	954.28	947.93	941.53	935.07	928.57
x1 = 0.1022	978.78	972.47	966.08	959.68	953.24
x1 = 0.2021	1023.42	1017.18	1010.91	1004.52	998.25
x1 = 0.2995	1066.61	1060.46	1054.25	1048	1041.72
x1 = 0.3953	1108.66	1102.54	1096.39	1090.21	1083.96
x1 = 0.5002	1154.23	1148.18	1142.09	1135.96	1129.81
x1 = 0.6003	1197.18	1191.17	1185.12	1179.04	1172.93
x1 = 0.6999	1239.3	1233.34	1227.29	1221.25	1215.17
x1 = 0.8007	1281.45	1275.5	1269.5	1263.47	1257.41
x1 = 0.9014	1322.94	1317	1311	1304.98	1298.92
x1 = 0.9524	1343.43	1337.48	1331.49	1325.46	1319.4
x1 = 1	1362.66	1356.74	1350.72	1344.71	1338.65

OC(CCl)CCl [1,3-dichloro-2-propanol] + CC(=O)OC(C)(C)C
mass density [kg/m3]
Conditions	293.15 K	298.15 K	303.15 K	308.15 K	313.15 K
x1 = 0.0496	885.18	879.67	874.08	868.47	862.83
x1 = 0.0948	902.23	896.7	891.14	885.54	879.9
x1 = 0.2007	943.76	938.26	932.7	927.12	921.51
x1 = 0.3003	985.2	979.7	974.18	968.6	963
x1 = 0.4001	1029.14	1023.63	1018.09	1012.51	1006.91
x1 = 0.4991	1075.36	1069.84	1064.27	1058.68	1053.06
x1 = 0.6003	1125.61	1120.05	1114.46	1108.83	1103.17
x1 = 0.7009	1179.16	1173.55	1167.9	1162.21	1156.49
x1 = 0.8013	1236.36	1230.68	1224.95	1219.17	1213.37
x1 = 0.9032	1298.89	1293.07	1287.22	1281.34	1275.42
x1 = 0.9507	1329.66	1323.78	1317.85	1311.9	1305.91
x1 = 1	1362.66	1356.74	1350.72	1344.71	1338.65

OC(CCl)CCl [1,3-dichloro-2-propanol] + CCOC(C)=O
mass density [kg/m3]
Conditions	293.15 K	298.15 K	303.15 K	308.15 K	313.15 K
x1 = 0.0442	921.07	915.01	909.02	902.88	896.68
x1 = 0.0967	945.13	939.12	933.16	927.05	921.2
x1 = 0.1971	991	985	979.1	972.97	967.2
x1 = 0.3019	1039.05	1033.15	1027.3	1021.22	1015.41
x1 = 0.3939	1081.4	1075.55	1069.64	1063.7	1057.83
x1 = 0.4995	1130.18	1124.35	1118.48	1112.58	1106.65
x1 = 0.6006	1176.92	1171.1	1165.25	1159.37	1153.45
x1 = 0.6993	1222.62	1216.83	1210.95	1205.06	1199.14
x1 = 0.8006	1269.78	1263.96	1258.07	1252.15	1246.2
x1 = 0.9011	1316.79	1310.89	1304.97	1299	1293.1
x1 = 0.953	1340.9	1334.99	1329.01	1323.02	1316.98
x1 = 1	1362.66	1356.74	1350.72	1344.71	1338.65
